We go through four compounds from patent US12180507B2, “Engineered platforms to stabilize both hepatocytes and endothelial cells in vitro” (Colorado State University Research Foundation, priority 2015, dated 2024).

Counter-ions that a name gives are not always drawn.

For series [1] the following is noted: established in previous literature; basis for dosing up to 100xCmax; read-out: Cmax (the maximum plasma concentration); cited from earlier work.
Series [2] has as its system LSECs. The following applies: known from the literature; cited from earlier work.
Series [3] relates to tri-cultures of hepatocytes with 3T3-J2 fibroblasts and either liver sinusoidal endothelial cells (LSECs) or human umbilical vein endothelial cells (HUVECs). The series is described as follows: Drug toxicity screen: albumin secretions in hepatocyte/fibroblast/endothelia tri-cultures. Particulars: azathioprine 100x and 50xCmax, dacarbazine 100xCmax, monocrotaline 100xCmax; 6 days, serum-free media; tri-cultures with LSECs or HUVECs compared with hepatocyte/3T3-J2 co-cultures.
Procedure: Tissue culture polystyrene 24-well plates (Corning® Life Sciences) were coated for 2 hours with 25 μg/mL rat tail collagen-I (Corning® Life Sciences) and rinsed twice with sterile water. […] Cryopreserved PHHs after processing were seeded at a density of 6.67×10^5 cells/mL into collagen micropatterned wells (300 μL/well). After allowing 4-5 hours for cellular attachment and spreading onto collagen-coated islands, wells were washed 3× in DMEM base medium to remove unattached cells, leaving ˜3×10^4 PHHs per well in 24-well format (˜90 islands/well). Cultures in the co-planar arrangement were backfilled with fibronectin (2 μg/cm^2) before endothelia and 3T3-J2 fibroblasts were seeded 12-18 hours later and allowed to fill the remaining area surrounding the PHH islands. The hepatocyte:endothelial ratio was chosen to match the physiologic ratio of 5 hepatocytes (3×10^4 per well) to 1 endothelium (6×10^3 per well), and 3T3-J2 fibroblasts were added to bring the total stromal cell count to 9×10^4 cells per well. Cultures in the layered configuration were seeded with 9×10^4 3T3-J2 fibroblasts per well 12-18 hours after seeding PHHs to fill in remaining areas, overlaid with 250 μg/mL Matrigel® (Corning® Life Sciences), and then seeded with 6×10^3 endothelia per well the following day. […]
Hepatic morphological, functionality, and health assessments. The morphology of MPCCs was monitored using an EVOS® FL cell imaging system (Life Technologies) with standard 4×, 10×, and 20× phase contrast objectives. CYP3A4 activity in MPCCs was measured using the luminescence-based luciferin-IPA assay from Promega® (Madison, WI) per manufacturer's instructions. CYP2A6 was evaluated by treating the cultures with 50 μM coumarin for 1 hour and measuring the production of the metabolite 7-hydroxycoumarin. Albumin secretions were assessed with an enzyme-linked immunosorbent assay (ELISA) with horseradish peroxidase detection and 3,3′,5,5′-tetramethylbenzidine as the substrate. Urea production was measured via a colorimetric endpoint analysis with diacetylmonoxime, acid, and heat (Stanbio® Labs, Boerne, TX). […]

For `Cn1cnc([N+](=O)[O-])c1Sc1ncnc2nc[nH]c12` [azathioprine], the Cmax in series [1] is 3.61 µM. The “Toxicity specific to LSECs rather than hepatocytes” value (from here on “Toxicity specific”) in series [2] is “toxicity specific to LSECs rather than hepatocytes”. Moreover, in series [3], the “Albumin secretions (drug toxicity), normalized to DMSO-only controls” value is reported as “more responsive to drug toxicity”.

`CCN(CC)CCOc1ccc(C(=C(Cl)c2ccccc2)c2ccccc2)cc1` [clomiphene citrate]: the “Toxicity specific” value in series [2] is “toxicity specific to LSECs rather than hepatocytes”.

Turning to `CN(C)/N=N/c1[nH]cnc1C(N)=O` [dacarbazine], the Cmax in series [1] was 43.9 µM. Moreover, the “Toxicity specific” value in series [2] is recorded as “toxicity specific to LSECs rather than hepatocytes”. Moreover, in series [3], the “Albumin secretions (drug toxicity), normalized to DMSO-only controls” value is reported as “more responsive to drug toxicity”.

In the case of `C[C@H]1C(=O)O[C@@H]2CCN3CC=C(COC(=O)[C@](C)(O)[C@]1(C)O)[C@H]23` [monocrotaline], in series [1], the Cmax was 10 µM. The “Toxicity specific” value in series [2] was “toxicity specific to LSECs rather than hepatocytes”. Further, in series [3], the “Albumin secretions (drug toxicity), normalized to DMSO-only controls” value is “more responsive to drug toxicity”.
